In US11199542B2, “Method for labeling specifically living bacteria comprising the use of modified non endogenous monosaccharide compounds” (priority 2015, dated 2021):

Legend:
[1] = system: Salmonella Typhimurium 12023; experiment: Metabolic labeling of living bacteria, click chemistry and fluorescence microscopy; format: cell-based; parameters: key: +: strains showing highly distinctive fluorescence on their membrane, indicative of an effective metabolic incorporation of the chemical reporter; −: the absence of labeling; details: compound 10 mM, 24 hours, fluorochrome-alkyne click 30 minutes
Serratia marcescens [2] = experiment: as above; format: cell-based; parameters: key: +: strains showing highly distinctive fluorescence on their membrane, indicative of an effective metabolic incorporation of the chemical reporter; −: the absence of labeling; details: first of two entries (Table 1 order: CIP102446), compound 10 mM, 24 hours, fluorochrome-alkyne click 30 minutes
[3] = system: Legionella pneumophila sg6; format: cell-based; parameters: key: +: strains showing highly distinctive fluorescence on their membrane, indicative of an effective metabolic incorporation of the chemical reporter; −: the absence of labeling; details: compound 10 mM, 24 hours, fluorochrome-alkyne click 30 minutes
Micrococcus luteus = experiment: Metabolic labeling of living bacteria, click chemistry and fluorescence microscopy; format: cell-based; parameters: key to labeling (fluorescence on membrane, metabolic incorporation of the chemical reporter): +: strains showing highly distinctive fluorescence on their membrane, indicative of an effective metabolic incorporation of the chemical reporter; −: the absence of labeling
Staphylococcus epidermis = experiment: as above; format: cell-based; parameters: key to labeling (fluorescence on membrane, metabolic incorporation of the chemical reporter): +: strains showing highly distinctive fluorescence on their membrane, indicative of an effective metabolic incorporation of the chemical reporter; −: the absence of labeling
Listeria monocytogenes ½ = experiment: as above; format: cell-based; parameters: key to labeling (fluorescence on membrane, metabolic incorporation of the chemical reporter): +: strains showing highly distinctive fluorescence on their membrane, indicative of an effective metabolic incorporation of the chemical reporter; −: the absence of labeling
[4] = system: Stenotrophomonas maltophilia; experiment: as above; format: cell-based; parameters: key: +: strains showing highly distinctive fluorescence on their membrane, indicative of an effective metabolic incorporation of the chemical reporter; −: the absence of labeling; details: compound 10 mM, 24 hours, fluorochrome-alkyne click 30 minutes
Vibrio cholerae = experiment: as above; format: cell-based; parameters: key: +: strains showing highly distinctive fluorescence on their membrane, indicative of an effective metabolic incorporation of the chemical reporter; −: the absence of labeling; details: compound 10 mM, 24 hours, fluorochrome-alkyne click 30 minutes
[5] = system: Pseudomonas fluorescens Migula; experiment: as above; format: cell-based; parameters: key: +: strains showing highly distinctive fluorescence on their membrane, indicative of an effective metabolic incorporation of the chemical reporter; −: the absence of labeling; details: compound 10 mM, 24 hours, fluorochrome-alkyne click 30 minutes
Neisseria gonorrhoeae = experiment: as above; format: cell-based; parameters: key to labeling (fluorescence on membrane, metabolic incorporation of the chemical reporter): +: strains showing highly distinctive fluorescence on their membrane, indicative of an effective metabolic incorporation of the chemical reporter; −: the absence of labeling
Serratia marcescens [6] = experiment: as above; format: cell-based; parameters: key: +: strains showing highly distinctive fluorescence on their membrane, indicative of an effective metabolic incorporation of the chemical reporter; −: the absence of labeling; details: second of two entries (Table 1 order: Clinical strain), compound 10 mM, 24 hours, fluorochrome-alkyne click 30 minutes
Neisseria meningitidis = experiment: as above; format: cell-based; parameters: key: +: strains showing highly distinctive fluorescence on their membrane, indicative of an effective metabolic incorporation of the chemical reporter; −: the absence of labeling; details: compound 10 mM, 24 hours, fluorochrome-alkyne click 30 minutes
Proteus mirabilis = experiment: as above; format: cell-based; parameters: key: +: strains showing highly distinctive fluorescence on their membrane, indicative of an effective metabolic incorporation of the chemical reporter; −: the absence of labeling; details: compound 10 mM, 24 hours, fluorochrome-alkyne click 30 minutes
[7] = system: Staphylococcus aureus aureus; experiment: as above; format: cell-based; parameters: key to labeling (fluorescence on membrane, metabolic incorporation of the chemical reporter): +: strains showing highly distinctive fluorescence on their membrane, indicative of an effective metabolic incorporation of the chemical reporter; −: the absence of labeling
[8] = system: Listeria monocytogenes ½a; experiment: as above; format: cell-based; parameters: key: +: strains showing highly distinctive fluorescence on their membrane, indicative of an effective metabolic incorporation of the chemical reporter; −: the absence of labeling; details: compound 10 mM, 24 hours, fluorochrome-alkyne click 30 minutes
Staphylococcus aureus = experiment: as above; format: cell-based; parameters: key to labeling (fluorescence on membrane, metabolic incorporation of the chemical reporter): +: strains showing highly distinctive fluorescence on their membrane, indicative of an effective metabolic incorporation of the chemical reporter; −: the absence of labeling
Enterococcus faecalis = experiment: as above; format: cell-based; parameters: key to labeling (fluorescence on membrane, metabolic incorporation of the chemical reporter): +: strains showing highly distinctive fluorescence on their membrane, indicative of an effective metabolic incorporation of the chemical reporter; −: the absence of labeling
Escherichia coli O86 = experiment: as above; format: cell-based; parameters: key: +: strains showing highly distinctive fluorescence on their membrane, indicative of an effective metabolic incorporation of the chemical reporter; −: the absence of labeling; details: compound 10 mM, 24 hours, fluorochrome-alkyne click 30 minutes
Klebsiella pneumoniae [9] = experiment: as above; format: cell-based; parameters: key: +: strains showing highly distinctive fluorescence on their membrane, indicative of an effective metabolic incorporation of the chemical reporter; −: the absence of labeling; details: second of two entries (Table 1 order: Clinical strain), compound 10 mM, 24 hours, fluorochrome-alkyne click 30 minutes
Escherichia coli K12 = experiment: as above; format: cell-based; parameters: key: +: strains showing highly distinctive fluorescence on their membrane, indicative of an effective metabolic incorporation of the chemical reporter; −: the absence of labeling; details: compound 10 mM, 24 hours, fluorochrome-alkyne click 30 minutes
Providenda stuartii = experiment: as above; format: cell-based, Providencia stuartii; parameters: key: +: strains showing highly distinctive fluorescence on their membrane, indicative of an effective metabolic incorporation of the chemical reporter; −: the absence of labeling; details: compound 10 mM, 24 hours, fluorochrome-alkyne click 30 minutes
Klebsiella pneumoniae [10] = experiment: as above; format: cell-based; parameters: key: +: strains showing highly distinctive fluorescence on their membrane, indicative of an effective metabolic incorporation of the chemical reporter; −: the absence of labeling; details: first of two entries (Table 1 order: CIP 101114), compound 10 mM, 24 hours, fluorochrome-alkyne click 30 minutes
[11] = compound 10 mM, 24 hours, fluorochrome-alkyne click 30 minutes

SMILES: [N-]=[N+]=NC[C@@H](O)[C@@H](O)[C@H](O)[C@H](O)CC(=O)C(=O)O [Kdo-N3, 8-azido-3,8-dideoxy-D-manno-octulosonate]
- labeling (fluorescence on membrane, metabolic incorporation of the chemical reporter) [1]: +
- labeling (fluorescence on membrane, metabolic incorporation of the chemical reporter) (Serratia marcescens [2]): +
- labeling (fluorescence on membrane, metabolic incorporation of the chemical reporter) [3]: +
- assimilation by the bacteria (in words) (Micrococcus luteus): did not assimilate
- labeling (fluorescence on membrane, metabolic incorporation of the chemical reporter) (Micrococcus luteus; [11]): −
- assimilation by the bacteria (in words) (Staphylococcus epidermis): did not assimilate
- labeling (fluorescence on membrane, metabolic incorporation of the chemical reporter) (Staphylococcus epidermis; [11]): −
- assimilation by the bacteria (in words) (Listeria monocytogenes ½; Listeria monocytogenes (strain not given)): did not assimilate
- labeling (fluorescence on membrane, metabolic incorporation of the chemical reporter) (Listeria monocytogenes ½; Listeria monocytogenes ½, compound 10 mM, 24 hours, fluorochrome-alkyne click 30 minutes): −
- labeling (fluorescence on membrane, metabolic incorporation of the chemical reporter) [4]: +
- labeling (fluorescence on membrane, metabolic incorporation of the chemical reporter) (Vibrio cholerae): +
- labeling (fluorescence on membrane, metabolic incorporation of the chemical reporter) [5]: +
- assimilation by the bacteria (in words) (Neisseria gonorrhoeae): did not assimilate
- labeling (fluorescence on membrane, metabolic incorporation of the chemical reporter) (Neisseria gonorrhoeae; [11]): −
- labeling (fluorescence on membrane, metabolic incorporation of the chemical reporter) (Serratia marcescens [6]): +
- labeling (fluorescence on membrane, metabolic incorporation of the chemical reporter) (Neisseria meningitidis): +
- labeling (fluorescence on membrane, metabolic incorporation of the chemical reporter) (Proteus mirabilis): +
- assimilation by the bacteria (in words) [7]: did not assimilate
- labeling (fluorescence on membrane, metabolic incorporation of the chemical reporter) [7, 11]: −
- labeling (fluorescence on membrane, metabolic incorporation of the chemical reporter) [8]: −
- assimilation by the bacteria (in words) (Staphylococcus aureus): did not assimilate
- labeling (fluorescence on membrane, metabolic incorporation of the chemical reporter) (Staphylococcus aureus; [11]): −
- assimilation by the bacteria (in words) (Enterococcus faecalis): did not assimilate
- labeling (fluorescence on membrane, metabolic incorporation of the chemical reporter) (Enterococcus faecalis; [11]): −
- labeling (fluorescence on membrane, metabolic incorporation of the chemical reporter) (Escherichia coli O86): +
- labeling (fluorescence on membrane, metabolic incorporation of the chemical reporter) (Klebsiella pneumoniae [9]): +
- labeling (fluorescence on membrane, metabolic incorporation of the chemical reporter) (Escherichia coli K12): +
- labeling (fluorescence on membrane, metabolic incorporation of the chemical reporter) (Providenda stuartii): +
- labeling (fluorescence on membrane, metabolic incorporation of the chemical reporter) (Klebsiella pneumoniae [10]): +
